Experimental data reported in patent US20060069132A1, “Azolecarboxamide herbicides” (priority 2004, published 2006).

What was measured:
morningglory = experiment: Test B pre-/postemergence herbicide test; type: in vivo, Ipomoea coccinea; conditions: for Plant response rating (0 to 100 scale), Morningglory: 0 is no effect, 100 is complete control, preemergence
Method in brief: (§1)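 Response was scored visually 13 to 15 days after treatment against untreated greenhouse controls, 0 meaning no effect and 100 complete control. Formulations (solvent mixture plus surfactant) went onto soil after planting, onto foliage of 1- to 4-leaf plants, and onto 2-leaf plants in a flooded paddy set including rice and barnyardgrass.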

velvetleaf = experiment: Test B pre-/postemergence herbicide test; type: in vivo, Abutilon theophrasti; conditions: for Plant response rating (0 to 100 scale), Velvetleaf: 0 is no effect, 100 is complete control, preemergence
Method in brief: (§2)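 Plants compared with untreated controls 13–15 days post-treatment and given a visual 0–100 injury score. Applications: preemergence to seeds; postemergence at 1- to 4-leaf (2–18 cm); paddy species flooded, 2-leaf stage. Vehicle non-phytotoxic, surfactant included.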

corn = experiment: Test B pre-/postemergence herbicide test; type: in vivo, Zea mays; conditions: for Plant response rating (0 to 100 scale), Corn: 0 is no effect, preemergence
Method in brief: as §2

Surinam grass = experiment: Test B pre-/postemergence herbicide test; type: in vivo, Urochloa decumbens; conditions: for Plant response rating (0 to 100 scale), Surinam Grass: 0 is no effect, 100 is complete control, preemergence
Method in brief: as §2

cocklebur = experiment: Test B pre-/postemergence herbicide test; type: in vivo, Xanthium strumarium; conditions: for Plant response rating (0 to 100 scale), Cocklebur: 0 is no effect, preemergence
Method in brief: as §1

rice = experiment: Test B flooded paddy test; type: in vivo, Oryza sativa; conditions: scale 0 to 100 (0 no effect, 100 complete control)
Method in brief: (§3)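 Formulated test chemicals went onto postemergence plants measuring 2 to 18 cm, at one to four leaves. For the paddy assay, species had reached two leaves. Scoring took place 13–15 days later by eye, relative to untreated plants, using 0 for no effect up to 100 for full control.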

pigweed = experiment: Test B pre-/postemergence herbicide test; type: in vivo, Amaranthus retroflexus; conditions: for Plant response rating (0 to 100 scale), Pigweed: 0 is no effect, 100 is complete control, preemergence
Method in brief: as §2

blackgrass = experiment: Test B postemergence herbicide test; type: in vivo, Alopecurus myosuroides
Method in brief: (§4)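 Visual control ratings, 0–100 versus untreated controls, taken after 13 to 15 days in the greenhouse. Blackgrass received a postemergence spray at the 1- to 4-leaf stage (2–18 cm); ducksalad, umbrella sedge and barnyardgrass were flooded-paddy treated at 2 leaves.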

wheat = experiment: Test B postemergence herbicide test; type: in vivo, Triticum aestivum; set-up: key to Wheat plant response rating: 0 = no effect, 100 = complete control
Method in brief: as §3

lambsquarters = experiment: Test B pre-/postemergence herbicide test; type: in vivo, Chenopodium album; conditions: for Plant response rating (0 to 100 scale), Lambsquarters: 0 is no effect, 100 is complete control, preemergence
Method in brief: as §2

ducksalad = experiment: Test B flooded paddy test; type: in vivo, Heteranthera limosa; conditions: scale 0 to 100 (0 no effect, 100 complete control)
Method in brief: as §4

barnyardgrass [1] = experiment: Test B flooded paddy test; type: in vivo, Echinochloa crus-galli; conditions: scale 0 to 100 (0 no effect, 100 complete control)
Method in brief: as §4

wild oat = experiment: Test B postemergence herbicide test; type: in vivo, Avena fatua
Method in brief: as §3

large crabgrass = experiment: Test B pre-/postemergence herbicide test; type: in vivo, Digitaria sanguinalis; conditions: for Plant response rating (0 to 100 scale), Crabgrass, Large: 0 is no effect, preemergence
Method in brief: as §2

[2] = test system: small flower umbrella sedge; experiment: Test B flooded paddy test; type: in vivo, Cyperus difformis; conditions: scale 0 to 100 (0 no effect, 100 complete control)
Method in brief: as §4

giant foxtail = experiment: Test B pre-/postemergence herbicide test; type: in vivo, Setaria faberi; conditions: for Plant response rating (0 to 100 scale), Foxtail, Giant: 0 is no effect, preemergence
Method in brief: as §2

barnyardgrass [3] = experiment: Test B pre-/postemergence herbicide test; type: in vivo, Echinochloa crus-galli; conditions: for Plant response rating (0 to 100 scale), Barnyardgrass: 0 is no effect, preemergence
Method in brief: as §1

[4] = 125 g ai/ha, visual rating, scale 0 (no effect) to 100 (complete control), postemergence
[5] = Postemergence, 500 g ai/ha, scale 0 (no effect) to 100 (complete control)
[6] = 125 g ai/ha, 100 is complete control
[7] = postemergence, 500 g ai/ha, scale 0 to 100, 0 is no effect, 100 is complete control
[8] = 500 g ai/ha, scale 0 to 100, 0 no effect, 100 complete control, preemergence
[9] = postemergence, 125 g ai/ha, scale 0 to 100

C#CCNC(=O)c1ccc(F)c(NC(=O)c2nn(C(C)(C)C)nc2CC)c1 [Compound 389]
40: Pigweed plant response rating (pigweed; [5])
30: Lambsquarters plant response rating (lambsquarters; [5]) | Sedge, Umbrella plant response rating ([2]; 1000 g ai/ha)
10: Surinam Grass plant response rating (Surinam grass; [5]) | Blackgrass plant response rating (blackgrass; [7]) | Lambsquarters plant response rating (lambsquarters; [4]) | Crabgrass, Large plant response rating (large crabgrass; [7]) | Foxtail, Giant plant response rating (giant foxtail; [7])
0: Plant response rating (0 to 100 scale), Morningglory (morningglory; 125 g ai/ha) | Morningglory plant response rating (morningglory; [4]) | Morningglory plant response rating (morningglory; [5]) | Plant response rating (0 to 100 scale), Velvetleaf (velvetleaf; 125 g ai/ha) | Velvetleaf plant response rating (velvetleaf; [4]) | Plant response rating (0 to 100 scale), Corn (corn; [6]) | Corn plant response rating (corn; [4]) | Corn plant response rating (corn; [7]) | Plant response rating (0 to 100 scale), Surinam Grass (Surinam grass; 125 g ai/ha) | Surinam Grass plant response rating (Surinam grass; [4]) | Plant response rating (0 to 100 scale), Cocklebur (cocklebur; [6]) | Cocklebur plant response rating (cocklebur; [4]) | Cocklebur plant response rating (cocklebur; [7]) | Plant response rating (0 to 100 scale), Pigweed (pigweed; 125 g ai/ha) | Blackgrass plant response rating (blackgrass; [4]) | Wheat plant response rating (wheat; [4]) | Wheat plant response rating (wheat; [8]) | Wheat plant response rating (wheat; [5]) | Plant response rating (0 to 100 scale), Lambsquarters (lambsquarters; 125 g ai/ha) | Ducksalad plant response rating (ducksalad; 1000 g ai/ha) | Barnyardgrass plant response rating (barnyardgrass [1]; 1000 g ai/ha) | Oat, Wild plant response rating (wild oat; [4]) | Oat, Wild plant response rating (wild oat; [5]) | Plant response rating (0 to 100 scale), Crabgrass, Large (large crabgrass; [6]) | Crabgrass, Large plant response rating (large crabgrass; [4]) | Plant response rating (0 to 100 scale), Foxtail, Giant (giant foxtail; [6]) | Foxtail, Giant plant response rating (giant foxtail; [4]) | Plant response rating (0 to 100 scale), Barnyardgrass (barnyardgrass [3]; [6]) | Barnyardgrass plant response rating (barnyardgrass [3]; [4]) | Barnyardgrass plant response rating (barnyardgrass [3]; [7])
20: Velvetleaf plant response rating (velvetleaf; [5]) | Rice plant response rating (rice; 1000 g ai/ha) | Pigweed plant response rating (pigweed; [4])

Cc1nn(C(C)C)nc1C(=O)Nc1cc(C(=O)N2CC=CC2)ccc1F [Compound 402]
40: Lambsquarters plant response rating (lambsquarters; [5])
70: Sedge, Umbrella plant response rating ([2]; 1000 g ai/ha)
20: Velvetleaf plant response rating (velvetleaf; [4]) | Surinam Grass plant response rating (Surinam grass; [5]) | Ducksalad plant response rating (ducksalad; 1000 g ai/ha) | Foxtail, Giant plant response rating (giant foxtail; [5])
10: Rice plant response rating (rice; 1000 g ai/ha) | Pigweed plant response rating (pigweed; [5]) | Wheat plant response rating (wheat; [8]) | Barnyardgrass plant response rating (barnyardgrass [1]; 1000 g ai/ha) | Crabgrass, Large plant response rating (large crabgrass; [5])
30: Velvetleaf plant response rating (velvetleaf; [5]) | Lambsquarters plant response rating (lambsquarters; [4])
0: Plant response rating (0 to 100 scale), Morningglory (morningglory; 125 g ai/ha) | Morningglory plant response rating (morningglory; [4]) | Morningglory plant response rating (morningglory; [5]) | Plant response rating (0 to 100 scale), Velvetleaf (velvetleaf; 125 g ai/ha) | Plant response rating (0 to 100 scale), Corn (corn; [6]) | Corn plant response rating (corn; [4]) | Corn plant response rating (corn; [5]) | Plant response rating (0 to 100 scale), Surinam Grass (Surinam grass; 125 g ai/ha) | Surinam Grass plant response rating (Surinam grass; [4]) | Plant response rating (0 to 100 scale), Cocklebur (cocklebur; [6]) | Cocklebur plant response rating (cocklebur; [4]) | Cocklebur plant response rating (cocklebur; [5]) | Plant response rating (0 to 100 scale), Pigweed (pigweed; 125 g ai/ha) | Pigweed plant response rating (pigweed; [4]) | Blackgrass plant response rating (blackgrass; [4]) | Blackgrass plant response rating (blackgrass; [5]) | Wheat plant response rating (wheat; [4]) | Wheat plant response rating (wheat; [5]) | Plant response rating (0 to 100 scale), Lambsquarters (lambsquarters; 125 g ai/ha) | Oat, Wild plant response rating (wild oat; [4]) | Oat, Wild plant response rating (wild oat; [5]) | Plant response rating (0 to 100 scale), Crabgrass, Large (large crabgrass; [6]) | Crabgrass, Large plant response rating (large crabgrass; [4]) | Plant response rating (0 to 100 scale), Foxtail, Giant (giant foxtail; [6]) | Foxtail, Giant plant response rating (giant foxtail; [4]) | Plant response rating (0 to 100 scale), Barnyardgrass (barnyardgrass [3]; [6]) | Barnyardgrass plant response rating (barnyardgrass [3]; [4]) | Barnyardgrass plant response rating (barnyardgrass [3]; [5])

Cc1nn(C(C)(C)C)nc1C(=O)Nc1cccc(C(=O)N(C)C)n1 [Compound 436]
10: Corn plant response rating (corn; [5]) | Cocklebur plant response rating (cocklebur; [5]) | Pigweed plant response rating (pigweed; [5]) | Wheat plant response rating (wheat; [9]) | Oat, Wild plant response rating (wild oat; [9])
0: Morningglory plant response rating (morningglory; [5]) | Morningglory plant response rating (morningglory; [9]) | Velvetleaf plant response rating (velvetleaf; [9]) | Corn plant response rating (corn; [9]) | Surinam Grass plant response rating (Surinam grass; [5]) | Surinam Grass plant response rating (Surinam grass; [9]) | Cocklebur plant response rating (cocklebur; [9]) | Rice plant response rating (rice; 125 g ai/ha) | Pigweed plant response rating (pigweed; [9]) | Blackgrass plant response rating (blackgrass; [5]) | Blackgrass plant response rating (blackgrass; [9]) | Lambsquarters plant response rating (lambsquarters; [5]) | Lambsquarters plant response rating (lambsquarters; [9]) | Ducksalad plant response rating (ducksalad; 125 g ai/ha) | Barnyardgrass plant response rating (barnyardgrass [1]; 125 g ai/ha) | Crabgrass, Large plant response rating (large crabgrass; [5]) | Crabgrass, Large plant response rating (large crabgrass; [9]) | Sedge, Umbrella plant response rating ([2]; 125 g ai/ha) | Foxtail, Giant plant response rating (giant foxtail; [5]) | Foxtail, Giant plant response rating (giant foxtail; [9]) | Barnyardgrass plant response rating (barnyardgrass [3]; Postemergence, 125 g ai/ha, scale 0 (no effect) to 100 (complete control)) | Barnyardgrass plant response rating (barnyardgrass [3]; [5])
20: Wheat plant response rating (wheat; [8]) | Wheat plant response rating (wheat; [5])
30: Velvetleaf plant response rating (velvetleaf; [5]) | Oat, Wild plant response rating (wild oat; [5])
